Reference: patent publication US7736537B1, “Replacement solvents having improved properties for refrigeration flushes” (Mainstream Engineering Corp., priority 2008, dated 2010)
Read-outs that look alike come from different tables or passages of the source.

Tests used:
[1] = Table 1; cited from earlier work
[2] = solubility parameter, Table 1; cited from earlier work
[3] = Description: Parameters such as the lethal dose 50 (LD50), lethal concentration 50 (LC50), cardiac sensitization, skin irritation, and mutagenicity (e.g., via the Ames test) can be used as toxicity metrics. The LDn or LCn abbreviations, where n is the percent lethality, are used for the dose of a toxicant lethal to n % of a test population. […] Cardiac sensitization is a measure of the ability of a compound to cause cardiac arrhythmia under stress.
The property modification components are chosen from a list of potential replacement solvents. These compounds included halogenated compounds such as halogenated acetates, alcohols, alkanes, cycloalkanes, alkenes, cycloalkenes, amines, anhydrides, aromatics, carbonyls, diones, esters, ethers, heterocyclics and ketones.

[4] = cardiac sensitization relative to CFC-113

Molecule	BP [1] [C.]	SP [2]	CS/CS113 [3, 4]	CS/CS113 [3]
1-bromo-bis(perfluoromethyl)ethylene	45.1	7.06 (cal/cm^3)^1/2	42.7	–
OC(C(F)(F)F)(C(F)(F)F)C(F)(F)F [1,1,1,3,3,3-hexafluoro-2-(trifluoromethyl)-2-propanol]	46.0	6.84 (cal/cm^3)^1/2	61.2	–
FC(F)(Br)C=C(C(F)(F)F)C(F)(F)F [1,1,1,4,4-pentafluoro-4-bromo-2-trifluoromethyl-2-butene]	61.0	6.77 (cal/cm^3)^1/2	105.5	–
O=C(CC(=O)C(F)(F)F)C(F)(F)F [1,1,1,5,5,5-hexafluoro-2,4-pentanedione]	69.9	6.90 (cal/cm^3)^1/2	–	140.5
O=C(CC(F)(F)F)C(F)(F)Br [1,1,4,4,4-pentafluoro-1-bromo-2-butanone]	89.0	7.89 (cal/cm^3)^1/2	17.1	–
O=C(CC(F)(F)F)CC(F)(F)Br [1,1,5,5,5-pentafluoro-1-bromo-3-pentanone]	118.4	7.89 (cal/cm^3)^1/2	34.2	–
FC(F)(F)C(F)(F)C(F)(F)C(F)(F)/C=C\C(F)(F)C(F)(F)C(F)(F)C(F)(F)F [1,2-(Z)-bis(perfluoro-n-butyl)ethylene]	132.0	6.81 (cal/cm^3)^1/2	1188.5	–
FC1(F)C(Cl)=C(Cl)C(F)(F)C(F)(F)C1(F)F [1,2-dichloro-3,3,4,4,5,5,6,6-octafluoro-cyclohexene]	123.8	7.55 (cal/cm^3)^1/2	15.5	–
FC1(F)C(Cl)=C(Cl)C(F)(F)C1(F)F [1,2-dichloro-hexafluoro-cyclopentene]	90.0	7.90 (cal/cm^3)^1/2	9.9	–
FC(Cl)C(F)(F)C(F)(F)Cl (stereo not shown) [1,3-dichloro-1,1,2,2,3-pentafluoropropane]	52.7	7.31 (cal/cm^3)^1/2	9.2	–
FC1=C(OCC(F)(F)F)C(F)(F)C(F)(F)C(F)(F)C1(F)F [1-(2,2,2-trifluoroethoxy)nonafluoro-cyclohexene]	113.7	7.51 (cal/cm^3)^1/2	70.2	–
C=C(OC(F)(F)Br)C(F)(F)F [1-(bromodifluoromethoxy)-1-(trifluoromethyl)ethene]	66.3	7.67 (cal/cm^3)^1/2	27.7	–
FC(OC(F)(F)Br)=C(C(F)(F)F)C(F)(F)F [1-(bromodifluoromethoxy)-2-(trifluoromethyl)-1,3,3,3-tetrafluoro-1-propene]	78.6	7.06 (cal/cm^3)^1/2	187.0	–
FC(F)(Br)OC=C(C(F)(F)F)C(F)(F)F [1-(bromodifluoromethoxy)-2-(trifluoromethyl)-3,3,3-trifluoro-1-propene]	78.3	7.26 (cal/cm^3)^1/2	151.6	–
FC(Br)=C(C(F)(F)F)C(F)(F)F [1-bromo-1,3,3,3-tetrafluoro-2-(trifluoromethyl)-1-propene]	51.9	6.78 (cal/cm^3)^1/2	71.9	–
FC(F)(F)c1cc(C(F)(F)F)c(Br)c(C(F)(F)F)c1 [1-bromo-2,4,6-tris(trifluoromethyl)benzene]	173.4	7.76 (cal/cm^3)^1/2	113.0	–
FC(F)(F)C(=CBr)C(F)(F)F [1-bromo-2-(trifluoromethyl)-3,3,3-trifluoropropene]	49.3	6.95 (cal/cm^3)^1/2	49.4	–
FC(F)(Cl)C(F)(Cl)Cl [CFC-113, 1,1,2-trichloro-1,2,2-trifluoroethane, reference compound]	47.6	–	–	–
